# Values joined by “and” are separate entries in the source; they are usually repeats but may differ in a detail not shown here. Equal values may be shown once. Read-outs that look alike come from different tables or passages of the source.
# Experiments:
# [1] = Single-dose (Pristiq 100 mg, oral) pharmacokinetics in healthy volunteers, plasma LC-MS/MS, non-compartmental; format: in vivo, human
# Source text: The present study was nested in a single-dose, open-label, randomized, pharmaco-bioequivalence study performed under biosafety and ethical standards. The data used were derived from 35 healthy volunteers who received the reference drug (Pristiq®, by Pfizer, Newbridge–Ireland) and who were selected for the study after assessment of their health status via clinical evaluation and a comprehensive set of laboratory tests. The same parameters were used to monitor adverse events post study.
# The analytical method was validated according to the respective resolution of the Agência Nacional de Vigilância Sanitária [Brazilian Public Health Surveillance Agency] [9]. The study used an LC-MS/MS system to verify quantification and calculate pharmacokinetic parameters and performed chromatographic separations in an LC-20AD analytical pump (Shimadzu-Kyoto, Japan) using a SIL-20A HT autosampler (Shimadzu-Kyoto, Japan), coupled with mass spectrometry analyses using a Quattro Micro (Micromass, Newcastle, UK) mass spectrometer equipped with an electrospray ionization (ESI) source. […] was detected via a multiple reaction monitoring (MRM) transition of 264.33 > 58.15, and orphenadrine was detected via an MRM transition of 270.32 > 181.26. Data was acquired using MassLynx 4.1 (Waters, Newcastle, UK). More information on the validation method can be found in the Supplementary Materials, including chromatograms for the selectivity assay (Figure S1). Pharmacokinetic parameters were calculated employing a non-compartmental statistic using WinNonLin 8.3 software (Pharsight, New Jersey, USA).
# Volunteers and Study Design
# The study started with 48 enrolled participants. Of these, 13 participants desisted after drug administration. Of the 35 remaining participants, 23 different adverse events were reported for some of them.
# The reference formulation was desvenlafaxine succinate monohydrate controlled-release coated tablet of 100 mg Pristiq® with administration of one single-dose tablet. The volunteers were hospitalized at 7:30 p.m. and had supper before 9:30 p.m. After an overnight fast, they received (at ∼5:40 a.m.) a tablet of 100 mg desvenlafaxine succinate monohydrate with 200 mL of water. The volunt eers then fasted for 4 h, after which period a standard lunch was served. A specific high-calorie diet was administered thirty minutes before taking the medication; Lunch: 4 hours after taking the medication; Afternoon snack:
# 8 hours after taking the medication; Dinner: 10 hours after taking the medication.
# It was necessary to observe the ethical principle of non-maleficence due to the adverse event of nausea being considered very common (≥ 10%). the antiemetic (Dramin® B6 DL - IV - 30 mg / 100 mL saline / 30 minutes) was administered twice: the first dose immediately after administration of the study medication and a second dose 5:00 hours after administration of the study medication.
# At 2 h before and 6, 8 and 12 h after the dose administration, vital signs were checked.
# The recruitment period was 24 h, during which period, blood samples (8 mL) from a suitable antecubital vein were collected, post-dosing via an indwelling catheter, into […]
# samples were centrifuged at ∼2,000×g for 10 min at 4°C, and the plasma was stored at - 70°C until assayed. Samples were handled under yellow light, due to the photosensitivity […]
# Determination of Pharmacokinetic Profile by LC-MS/MS
# Chromatographic separations were performed in an LC-20AD analytical pump and SIL-20A HT autosampler from Shimadzu. The stationary phase employed a Luna AgilLuna Agilent Polaris 5 µm C18-A 50 x 2,0mm column (Phenomenex). The mobile phase consisted of a solution of 10 mM ammonium acetate with 0.1% formic acid (Phase A) and acetonitrile with 0.1% formic acid (Phase B), flowing at 0.3 mL/min in proportion (2:8). The autosampler was maintained at 22°C, with an injection volume of 10 µl and 2.2- […]
# Mass spectrometry was conducted on a Quattro Micro mass spectrometer from […]
# [2] = Adverse events monitored by clinical evaluation and laboratory tests after single dose; format: in vivo, human
# Source text: The present study was nested in a single-dose, open-label, randomized, pharmaco-bioequivalence study performed under biosafety and ethical standards. The data used were derived from 35 healthy volunteers who received the reference drug ([…]®, by Pfizer, Newbridge-Ireland) and who were selected for the study after assessment of their health status via clinical evaluation and a comprehensive set of laboratory tests. The same parameters were used to monitor adverse events post study. At the beginning and end of the study, all participants underwent clinical evaluation and laboratory tests using the reference values proposed by […] or without clinical significance, according to a medical report. A complete summary of participants' characteristics is available in Table S1. Clinical and laboratory characteristics outside the normal referential criteria were reported as adverse events (Table S2). page 3: Pharmaceutics 2024, 16, 1385 3 of 6 1. Supplementary Methods Volunteers and Study Design The study started with 48 enrolled participants. Of these, 13 participants desisted after drug administration. Of the 35 remaining participants, 23 different adverse events were reported for some of them. The reference formulation was desvenlafaxine succinate monohydrate controlled- release coated tablet of 100 mg […]® with administration of one single-dose tablet. The volunteers were hospitalized at 7:30 p.m. and had supper before 9:30 p.m. After an overnight fast, they received (at ∼5:40 a.m.) a tablet of 100 mg desvenlafaxine succinate monohydrate with 200 mL of water. The volunt eers then fasted for 4 h, after which period a standard lunch was served. A specific high-calorie diet was administered thirty minutes before taking the medication; Lunch: 4 hours after taking the medication; Afternoon snack: 8 hours after taking the medication; Dinner: 10 hours after taking the medication. It was necessary to observe the ethical principle of non-maleficence due to the adverse event of nausea being considered very common (≥ 10%). the antiemetic ([…] - 30 mg / 100 mL saline / 30 minutes) was administered twice: the first dose immediately after administration of the study medication and a second dose 5:00 hours after administration of the study medication. At 2 h before and 6, 8 and 12 h after the dose administration, vital signs were checked. The recruitment period was 24 h, during which period, blood samples (8 mL) from a suitable antecubital vein were collected, post-dosing via an indwelling catheter, into Heparin lithium-containing tubes at 0, 1:00, 2:00, 3:00, 4:00, 5:00, 6:00, 6:15, 6:30, 6:45, 7:00, 7:15, 7:30, 7:45, 8:00, 8:20, 8:40, 9:00, 10:00, 12:00, 24:00, and 36:00, 48:00, 72.0h. The blood samples were centrifuged at ∼2,000×g for 10 min at 4°C, and the plasma was stored at - 70°C until assayed. Samples were handled under yellow light, due to the photosensitivity of the drug. Determination of Pharmacokinetic Profile by LC-MS/MS Chromatographic separations were performed in an LC-20AD analytical pump and SIL-20A HT autosampler from Shimadzu. The stationary phase employed a Luna AgilLuna Agilent Polaris 5 μm […] 50 x 2,0mm column (Phenomenex). The mobile phase consisted of a solution of 10 mM ammonium acetate with 0.1% formic acid (Phase A) and acetonitrile with 0.1% formic acid (Phase B), flowing at 0.3 mL/min in proportion (2:8). The autosampler was maintained at 22°C, with an injection volume of 10 μl and 2.2- minute duration. Mass spectrometry was conducted on a Quattro Micro mass spectrometer from Micromass, equipped with an electrospray ionization (ESI) source. […]
# [3] = design: method as in doi:10.4172/jbb.1000130; conditions: cited from earlier work
# [4] = design: method as in doi:10.4172/jbb.1000130; conditions: cited from earlier work; remark: listed apart in the source
# [5] = system: muscarinic–cholinergic receptors; design: method as in PMID 20694066; conditions: cited from earlier work
# [6] = system: H1-histaminergic receptors; design: method as in PMID 20694066; conditions: cited from earlier work
# [7] = system: α1-adrenergic receptors; design: method as in PMID 20694066; conditions: cited from earlier work
# [8] = system: monoamine oxidase; design: method as in PMID 20694066; conditions: cited from earlier work
# [9] = cited from earlier work
# [10] = 35 healthy volunteers, single oral 100 mg Pristiq, plasma
# [11] = 35 participants, single 100 mg dose
smiles,measurement,setting,value
"CN(C)CC(c1ccc(O)cc1)C1(O)CCCCC1 (stereo not shown) [desvenlafaxine, O-desmethylvenlafaxine]","AUC 0-t, Maximum",[1]; [10],"10,338.49 h*ng/mL"
same,"AUC 0-t, Minimum",[1]; [10],2711.68 ng·h/mL
same,"Cmax, Maximum",[1]; [10],469.15 ng/mL
same,"Cmax, Minimum",[1]; [10],123.16 ng/mL
same,"Kel, Maximum",[1]; [10],0.11 h⁻¹
same,"Kel, Minimum",[1]; [10],0.06 h⁻¹
same,"T ½, Maximum",[1]; [10],12.00 h
same,"T ½, Minimum",[1]; [10],6.63 h
same,"Tmax, Maximum",[1]; [10],12.00 h
same,"Tmax, Minimum",[1]; [10],4.00 h
same,AUC(0-t),"[1]; human, plasma, po, 100 mg, 35 healthy volunteers, single oral 100 mg Pristiq, plasma, read-out: AUC 0-t, Mean",6050 ng·h/mL
same,AUC(0-t),"[1]; human, plasma, po, 100 mg, 35 healthy volunteers, single oral 100 mg Pristiq, plasma, read-out: AUC 0-t, Median",5780 ng·h/mL
same,Cmax,"[1]; human, plasma, po, 100 mg, 35 healthy volunteers, single oral 100 mg Pristiq, plasma, read-out: Cmax, Mean",290 ng/mL
same,Cmax,"[1]; human, plasma, po, 100 mg, 35 healthy volunteers, single oral 100 mg Pristiq, plasma, read-out: Cmax, Median",276 ng/mL
same,k el,"[1]; human, plasma, po, 100 mg, 35 healthy volunteers, single oral 100 mg Pristiq, plasma, read-out: Kel, Mean (converted)",2.22e-05 s⁻¹
same,k el,"[1]; human, plasma, po, 100 mg, 35 healthy volunteers, single oral 100 mg Pristiq, plasma, read-out: Kel, Median (converted)",1.94e-05 s⁻¹
same,half-life,"[1]; human, plasma, po, 100 mg, 35 healthy volunteers, single oral 100 mg Pristiq, plasma, read-out: T ½, Mean (converted)",9.43 h
same,half-life,"[1]; human, plasma, po, 100 mg, 35 healthy volunteers, single oral 100 mg Pristiq, plasma, read-out: T ½, Median (converted)",9.35 h
same,Tmax,"[1]; human, plasma, po, 100 mg, 35 healthy volunteers, single oral 100 mg Pristiq, plasma, read-out: Tmax, Mean",7.4 h
same,Tmax,"[1]; human, plasma, po, 100 mg, 35 healthy volunteers, single oral 100 mg Pristiq, plasma, read-out: Tmax, Median",7.5 h
same,k el,"[1]; human, plasma, po, 100 mg, individual participants, single oral 100 mg Pristiq, read-out: Kel (converted)",1.94e-05 s⁻¹
same,half-life,"[1]; human, plasma, po, 100 mg, individual participants, single oral 100 mg Pristiq, read-out: T1/2 (converted)",10.1 h
same,Tmax,"[1]; individual participants P1-P35, single oral 100 mg Pristiq",6.50 h and 8.67 h and 6.25 h and 4.00 h and 6.00 h and 8.33 h and 6.75 h and 7.00 h and 10.00 h and 5.00 h and 7.75 h and 12.00 h and 9.00 h
same,"Alanine Aminotransferase Increased, events count",[2]; [11],3
same,"Altered Erythrogram, events count",[2]; [11],1
same,"Altered Leukogram, events count",[2]; [11],3
same,"Anxiety, events count",[2]; [11],1
same,"Aspartate Transaminase Increased, events count",[2]; [11],5
same,"Cephalea, events count",[2]; [11],3
same,"Diarrhea, events count",[2]; [11],1
same,"General malaise, events count",[2]; [11],6
same,"Incresead triglycerides, events count",[2]; [11],2
same,"Leukocyturia, events count",[2]; [11],2
same,"Nausea, events count",[2]; [11],5
same,"Syncope, events count",[2]; [11],1
same,"Total Cholesterol Increased, events count",[2]; [11],1
same,"Vomiting, events count",[2]; [11],6
same,"Alanine Aminotransferase Increased, intensity","[2]; human, in vivo",Mild
same,"Altered Erythrogram, intensity","[2]; human, in vivo",Mild
same,"Altered Leukogram, intensity","[2]; human, in vivo",Mild
same,"Anxiety, intensity","[2]; human, in vivo",Mild
same,"Aspartate Transaminase Increased, intensity","[2]; human, in vivo",Mild
same,"Cephalea, intensity","[2]; human, in vivo",Mild
same,"Diarrhea, intensity","[2]; human, in vivo",Mild
same,"General malaise, intensity","[2]; human, in vivo",Mild
same,"Incresead triglycerides, intensity","[2]; human, in vivo",Mild
same,"Leukocyturia, intensity","[2]; human, in vivo",Mild
same,"Nausea, intensity","[2]; human, in vivo",Mild
same,"Syncope, intensity","[2]; human, in vivo",Mild
same,"Total Cholesterol Increased, intensity","[2]; human, in vivo",Mild
same,"Vomiting, intensity","[2]; human, in vivo",Mild
same,volume of distribution,[3]; after intravenous administration,3.4 L/kg
same,excreted as the glucuronide metabolite,[3],~ 19%
same,"excreted as the oxidative metabolite (N,O-didesmethylvenlafaxine)",[3],< 5%
same,excreted unchanged,[3],~ 45%
same,mean half-life,[3],approximately 11 h
same,bioavailability,[3]; oral intake,80%
same,time to maximum plasma concentrations (Cmax),[3]; oral intake,7.5 h
same,plasma protein binding,[4],30%
same,effect on muscarinic–cholinergic receptors,[5],does not significantly affect
same,effect on H1-histaminergic receptors,[6],does not significantly affect
same,effect on α1-adrenergic receptors,[7],does not significantly affect
same,inhibition of monoamine oxidase,[8],nor does it inhibit
same,blood cholesterol and triglyceride levels,[9],can increase
same,participants with increased blood pressure,[9]; five participants of a clinical study,10%
same,systolic and diastolic blood pressure change,[9]; short-term desvenlafaxine treatment,small but statistically significant increases
same,frequency of the adverse event nausea (very common),"[9]; stated as known frequency, no reference given",≥ 10%
